Reference: ChEMBL document CHEMBL3351909, “In vitro and in vivo characterization of a benzofuran derivative, a potential anticancer agent, as a novel Aurora B kinase inhibitor” (Eur J Med Chem, 2015)
pIC50: −log10 of the molar value. Calls of active or inactive are those of the source. The rule behind the calls is not given here.

Tests used:
MDA-MB-231 = assay: Cytotoxicity against human MDA-MB-231 cells after 96 hrs by CCK-8 assay; assay type: functional, cell-based; settings: MDA-MB-231, 96 h
[1] = Cytotoxicity against human PC3 cells after 96 hrs by CCK-8 assay; assay type: functional, cell-based; settings: PC-3, 96 h
LoVo = assay: Cytotoxicity against human LoVo cells after 96 hrs by CCK-8 assay; assay type: functional, cell-based
[2] = Cytotoxicity against human CaSki cells after 96 hrs by CCK-8 assay; assay type: functional, cell-based; settings: Ca-Ski
SW-620 [3] = assay: Growth inhibition of human SW620 cells at 5 to 20 uM after 96 hrs by CCK-8 assay; assay type: functional, cell-based
HeLa [4] = assay: Growth inhibition of human HeLa cells at 5 to 20 uM after 96 hrs by CCK-8 assay; assay type: functional, cell-based
HepG2 [5] = assay: Growth inhibition of human HepG2 cells at 5 to 20 uM after 96 hrs by CCK-8 assay; assay type: functional, cell-based
HepG2 [6] = assay: Inhibition of colony formation in human HepG2 cells at 5 uM after 96 hrs by crystal violet staining-based assay; assay type: functional, cell-based
SW-620 [7] = assay: Inhibition of colony formation in human SW620 cells at 5 uM after 96 hrs by crystal violet staining-based assay; assay type: functional, cell-based
HeLa [8] = assay: Inhibition of colony formation in human HeLa cells after 96 hrs by crystal violet staining-based assay; assay type: functional, cell-based
HepG2 [9] = assay: Inhibition of colony formation in human HepG2 cells after 96 hrs by crystal violet staining-based assay; assay type: functional, cell-based
SW-620 [10] = assay: Inhibition of colony formation in human SW620 cells after 96 hrs by crystal violet staining-based assay; assay type: functional, cell-based
HepG2 [11] = assay: Cell cycle arrest in human HepG2 cells assessed as accumulation at G2/M phase at 20 uM after 48 hrs by flow cytometry relative to control; assay type: functional
HepG2 [12] = assay: Cell cycle arrest in human HepG2 cells assessed as reduction in G1 phase at 20 uM after 48 hrs by flow cytometry relative to control; assay type: functional, cell-based
HeLa [13] = assay: Cell cycle arrest in human HeLa cells assessed as accumulation at G2/M phase at 20 uM after 48 hrs by flow cytometry relative to control; assay type: functional
Aurora kinase B [14] = target: T1, Aurora kinase B (Homo sapiens, UniProt Q96GD4); assay: Inhibition of AURKB in human HeLa cells assessed as reduction in histone H3 phosphorylation at 5 to 20 uM after 48 hrs by Western blotting analysis; assay type: cell-based
T1 sequence (Q96GD4 whole entry): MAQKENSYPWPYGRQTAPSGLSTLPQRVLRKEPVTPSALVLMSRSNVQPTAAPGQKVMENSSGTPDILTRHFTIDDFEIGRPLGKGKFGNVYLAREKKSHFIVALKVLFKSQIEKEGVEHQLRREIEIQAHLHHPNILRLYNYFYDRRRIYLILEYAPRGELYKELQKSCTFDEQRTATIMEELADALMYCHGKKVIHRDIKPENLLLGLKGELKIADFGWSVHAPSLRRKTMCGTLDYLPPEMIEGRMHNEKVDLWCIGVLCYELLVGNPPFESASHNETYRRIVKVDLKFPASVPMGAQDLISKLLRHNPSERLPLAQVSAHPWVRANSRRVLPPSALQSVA

Aurora kinase B [15] = target: T1, Aurora kinase B; assay: Inhibition of AURKB in human SW620 cells assessed as reduction in histone H3 phosphorylation at 5 to 20 uM after 48 hrs by Western blotting analysis; assay type: cell-based; settings: SW-620
Aurora kinase B [16] = target: T1, Aurora kinase B; assay: Inhibition of AURKB in human HepG2 cells assessed as reduction in histone H3 phosphorylation at 20 uM after 48 hrs by Western blotting analysis; assay type: cell-based
Aurora kinase B [17] = target: T1, Aurora kinase B; assay: Inhibition of AURKB in human HeLa cells assessed as reduction in histone H3 expression at 5 to 20 uM after 48 hrs by Western blotting analysis; assay type: cell-based
Aurora kinase B [18] = target: T1, Aurora kinase B; assay: Inhibition of AURKB in human SW620 cells assessed as reduction in histone H3 expression at 5 to 20 uM after 48 hrs by Western blotting analysis; assay type: cell-based; settings: SW-620
Aurora kinase B [19] = target: T1, Aurora kinase B; assay: Inhibition of AURKB in human HepG2 cells assessed as reduction in histone H3 expression at 5 to 20 uM after 48 hrs by Western blotting analysis; assay type: cell-based
Aurora kinase B [20] = target: T1, Aurora kinase B; assay: Inhibition of AURKB in human HeLa cells assessed as reduction in Aurora B expression at 5 to 20 uM after 48 hrs by Western blotting analysis; assay type: cell-based
Aurora kinase B [21] = target: T1, Aurora kinase B; assay: Inhibition of AURKB in human SW620 cells assessed as reduction in Aurora B expression expression at 5 to 20 uM after 48 hrs by Western blotting analysis; assay type: cell-based; settings: SW-620
Aurora kinase B [22] = target: T1, Aurora kinase B; assay: Inhibition of AURKB in human HepG2 cells assessed as reduction in Aurora B expression expression at 5 to 20 uM after 48 hrs by Western blotting analysis; assay type: cell-based
Aurora kinase B [23] = target: T1, Aurora kinase B; assay: Inhibition of AURKB in human HepG cells assessed as reduction in histone H3 phosphorylation at 5 to 20 uM after 48 hrs by […] analysis; assay type: cell-based
[24] = Antitumor activity against human QGY7401 cells xenografted in nude mouse assessed as reduction in tumor weight at 10 mg/kg, ip qd administered for 14 days measured on day 18 (reference value: 2.24 +/- 0.20 g); assay type: functional; settings: route intraperitoneal
[25] = Antitumor activity against human QGY7401 cells xenografted in nude mouse assessed as reduction in tumor weight at 20 mg/kg, ip qd administered for 14 days measured on day 18 (reference value: 2.24 +/- 0.20 g); assay type: functional; settings: route intraperitoneal
[26] = Antitumor activity against human QGY7401 cells xenografted in nude mouse assessed as reduction in body weight at 10 mg/kg, ip qd administered for 14 days measured on day 18 (reference value: 24.13 +/- 2.18 g); assay type: functional; settings: route intraperitoneal
[27] = Antitumor activity against human QGY7401 cells xenografted in nude mouse assessed as reduction in body weight at 20 mg/kg, ip qd administered for 14 days measured on day 18 (reference value: 24.13 +/- 2.18 g); assay type: functional; settings: route intraperitoneal
[28] = Antitumor activity against human QGY7401 cells xenografted in nude mouse assessed as inhibition of tumor growth at 10 mg/kg, ip qd administered for 14 days measured on day 18 relative to control; assay type: functional; settings: route intraperitoneal, read-out: TGI
[29] = Antitumor activity against human QGY7401 cells xenografted in nude mouse assessed as inhibition of tumor growth at 20 mg/kg, ip qd administered for 14 days measured on day 18 relative to control; assay type: functional; settings: route intraperitoneal, read-out: TGI
Mus musculus [30] = assay: Toxicity in nude mouse xenografted with human QGY7401 cells at 10 to 20 mg/kg, ip qd administered for 14 days measured on day 18; assay type: organism-based; set-up: dose 10-20 mg/kg, route intraperitoneal; settings: in vivo, 336 h
Homo sapiens [31] = assay: Inhibition of histone H3 phosphorylation in human QGY7401 cells xenografted in nude mouse at 10 to 20 mg/kg, ip qd administered for 14 days by hematoxylin and eosin staining-based microscopic analysis; assay type: functional, organism-based
Homo sapiens [32] = assay: Inhibition of histone H3 phosphorylation in human QGY7401 cells xenografted in ip dosed nude mouse administered qd for 14 days by Hematoxylin and eosin staining-based microscopic analysis; assay type: functional, organism-based
Mus musculus [33] = assay: Acute toxicity in mouse up to 1000 mg/kg, ip qd administered for 2 weeks; assay type: organism-based; set-up: dose 1000 mg/kg, route intraperitoneal; settings: in vivo, 336 h

O=C1/C(=C\c2ccc(O)c(O)c2)Oc2ccccc21
pIC50 (MDA-MB-231): < 4.30 | pIC50 [1]: < 4.30 | pIC50 (LoVo): < 4.30 | pIC50 [2]: < 4.30 | growth inhibition (GI) (SW-620 [3]): Active | growth inhibition (GI) (HeLa [4]): Active | growth inhibition (GI) (HepG2 [5]): Active | inhibition (HepG2 [6]): Active | inhibition (SW-620 [7]): Active | inhibition (HeLa [8]): Dose-dependent effect | inhibition (HepG2 [9]): Dose-dependent effect | inhibition (SW-620 [10]): Dose-dependent effect | Ratio (HepG2 [11]): 2 | Activity (HepG2 [12]): Active | Ratio (HeLa [13]): 1.3 | inhibition (Aurora kinase B [14]): Active | inhibition (Aurora kinase B [15]): Active | inhibition (Aurora kinase B [16]): Active | inhibition (Aurora kinase B [17]): Active | inhibition (Aurora kinase B [18]): Active | inhibition (Aurora kinase B [19]): Active | inhibition (Aurora kinase B [20]): Active | inhibition (Aurora kinase B [21]): Active | inhibition (Aurora kinase B [22]): Active | inhibition (Aurora kinase B [23]): Active | Activity [24]: 1.71 g | Activity [25]: 1.44 g | Activity [26]: 21.87 g | Activity [27]: 22.14 g | inhibition in vivo at 10 mg/kg [28]: 39.2% | inhibition in vivo at 20 mg/kg [29]: 48.1% | Activity (Mus musculus [30]): Non-toxic | inhibition (Homo sapiens [31]): Active | inhibition (Homo sapiens [32]): Dose-dependent effect | Activity (Mus musculus [33]): Non-toxic
